Laboratory results as given in EP4628074A1, “N-PALMITOYLETHANOLAMIDE FOR USE IN COMBINATION WITH A NON-STEROIDAL ANTI-INFLAMMATORY DRUG IN THE TREATMENT OF INFLAMMATORY PAIN” (priority 2024, dated 2025).

Key:
[1] = test system: collagen-induced arthritis; assay: Paw volume by plethysmometry in collagen-induced arthritis (CIA) (Experiment 2); assay type: in vivo, Female Lewis rats; details: for Pr > F: 2x2 factorial analysis on swelling of the paw, PEA 30 mg/kg, ibuprofen 5 mg/kg, PEA*IBU = interaction (synergy)
Experimental: (§1) Rheumatoid arthritis is a disease characterized by inflammatory pain, in which the involved joints present swelling, stiffness and often erosive processes. Female Lewis rats were maintained on a 12/12 hour light/dark cycle, at constant temperature and humidity and acclimated for 1 week, with free access to water and standard diet. […] Arthritis score, change in paw volume (mL), and change in body weight (g) were measured as indicators of inflammatory pain. Arthritis severity was measured every other day starting on day 25, using the following score: 0 = no sign of arthritis; 1 = swelling and/or redness of the paw or toe; 2 = two joints involved; 3 = more than two joints involved; and 4 = severe arthritis of the entire paw and toes. The arthritis index for each subject was calculated by adding the four scores of the individual paws. The change in paw volume compared to day 21 was assessed every two days by plethysmometry (Ugo Basile) starting from day 25. The change in weight was measured for each animal on day 21 and then every two days starting from day 25.
(§2) The chosen inflammatory pain indicators were analyzed via Generalized Linear Model (GLM) followed by post-hoc analysis based on Tukey-Kramer correction for multiple comparisons. […] All analyzes were performed using SAS software, version 9.4 (SAS Institute, Cary, NC, USA).

[2] = test system: collagen-induced arthritis; assay: Body weight change in collagen-induced arthritis (CIA) (Experiment 2); assay type: in vivo, Female Lewis rats; details: PEA 30 mg/kg; for Pr > F: 2x2 factorial analysis on weight change, ibuprofen 5 mg/kg, PEA*IBU = interaction (synergy)
Experimental: as §1
as §2, with “USA). P value < 0.05 was considered significant.” for “USA).”

[3] = test system: inflammatory pain induced by CFA; assay: Incapacitance test (spontaneous pain), CFA-induced inflammatory pain, chronic (14 days) oral treatment (Experiment 4); assay type: in vivo, male Sprague-Dawley rats; details: 2x2 ANOVA on percentage inhibition of spontaneous pain, interaction line = synergy
Experimental: The inflammatory pain model was induced by injecting Complete Freund's Adjuvant (CFA, Sigma-Aldrich) into the tibiotarsal joint of male Sprague-Dawley rats (Charles River), housed in 26x41 cm cages at the Animal Husbandry Centre. Laboratory Animals (Ce.S.A.L.) of the University of Florence with a 12-hour circadian cycle, water and food (standard diet) "ad libitum", temperature of 23±1°C. Intra-articular injection occurred according to the method described by Butler et al. (Pain 48:73-81,1992) after light anesthesia with 2% isoflurane. The skin surrounding the injection site was sterilized with 75% ethyl alcohol. Then a 28-gauge needle was inserted into the joint cavity, through which a volume of 50 µl of CFA was injected. The animals were then divided into the following treatment groups (N = 8): • Sham (control, a volume of physiological solution equal to that used for CFA animals was injected into the tibiotarsal joint) • Vehicle (CMC 1%) • Diclofenac (3 mg/kg) • Diclofenac (30 mg/kg) • PEA (10 mg/kg) • PEA-OXA (10 mg/kg) [formula] [formula] [formula] [formula]
The tested molecules - used both individually and in combination - were suspended in 1% CMC and administered orally daily from day 1 to day 14 (chronic treatment). […] Behavioral tests were conducted 24 hours after the last administration, in order to highlight the effect of repeated treatment on joint pain. Inflammatory pain induced by CFA injection was measured by paw pressure test. […] The nociceptive threshold has been expressed as the force to which the animal reacts by retracting its paw or vocalizing (Leighton et al., Br J Pharmacol 93:553-560,1988). An analgesimeter (Ugo Basile, Varese) was used for this purpose, which allows the mechanical hyperalgesia to be quantified. Furthermore, spontaneous pain was assessed using the incapacitance test, which evaluates variations in postural balance through the "Incapacitance" device (Linton Instrumentation, UK), a scale which simultaneously, but separately, measures the force imparted by each paw (Fernandes et al., Arthritis Res Ther. 2016 Jan 11;18:7).
Briefly, rats were trained to stand on their hind legs in a box with an inclined plane (65° to the horizontal), placed above the "Incapacity" apparatus. […] The results were expressed in terms of "painful potency", defined as percentage inhibition (mean ± SEM) of inflammatory pain induced by CFA and calculated according to the formula: 100* (treatm-VEIC)/(CTRL-VEIC)."
The effect on pain was analyzed using Generalized Linear Model (GLM) followed by post-hoc analysis based on Tukey-Kramer correction for multiple comparisons. The results of the analyses were expressed as mean ± standard error of the mean (SEM). […]

CCCCCCCCCCCCCCCC(=O)NCCO [PEA, N-palmitoylethanolamide] was tested, and the “Pr > F” value ([1]; 6° giorno di trattamento) was 0,0002, the “Pr > F” value ([1]; 8° giorno di trattamento) was <0,0001 and the “Pr > F” value ([1]; 10° giorno di trattamento) was <0,0001. For the same compound, the “effect on paw volume increase” value ([1]; single administration of PEA 30 mg/kg or ibuprofen 5 mg/kg (not combined)) was “had no effect”, the “Pr > F” value ([2]; 6° giorno di trattamento (G31)) was <0,0001 and the “Pr > F” value ([2]; 8° giorno di trattamento (G33)) was <0,0001. For the same compound, the “Pr > F” value ([2]; 10° giorno di trattamento (G35)) was <0,0001, the “effect on weight reduction induced by arthritis pain” value ([2]; from the 4th day of treatment (day 29) for the entire observation period, low-dose ibuprofen 5 mg/kg, high-dose IBU 30 mg/kg) was “neither PEA nor low-dose ibuprofen exerted any effect” and the “Pr > F” value ([3]; PEA 5 mg/kg + diclofenac 3 mg/kg compared with diclofenac 3 mg/kg and PEA 10 mg/kg alone) was <0,0001. The “Pr > F” value ([3]; PEA 10 mg/kg, diclofenac 3 mg/kg) was 0,0084.
